Reference: ChEMBL document CHEMBL5442219

Experiments:
Conditions in all cases: Compound concentration 10 µM
[1] = target: Beta-2 adrenergic receptor (Homo sapiens) (UniProt P07550)
Description: PDSP Primary Binding target: ADRB2 - Compounds are tested at 10 uM concentration, plate are incubated at room temperature in the dark for 90 minutes. Reaction are stopped by vacuum filtration onto 0.3% polyethyleneimine soaked filter mats using Filtermate harvester. Scintilation cocktail is then melted onto microwave-dried filters on a hot plate and the radio activity is counted in Microbia counter.

[2] = target: Sigma intracellular receptor 2 (Homo sapiens) (UniProt Q5BJF2)
Description: PDSP Primary Binding target: TMEM97 - Compounds are tested at 10 uM concentration, plate are incubated at room temperature in the dark for 90 minutes. Reaction are stopped by vacuum filtration onto 0.3% polyethyleneimine soaked filter mats using Filtermate harvester. Scintilation cocktail is then melted onto microwave-dried filters on a hot plate and the radio activity is counted in Microbia counter.

[3] = target: 5-hydroxytryptamine receptor 2B (Homo sapiens) (UniProt P41595)
Description: PDSP Primary Binding target: HTR2B - Compounds are tested at 10 uM concentration, plate are incubated at room temperature in the dark for 90 minutes. Reaction are stopped by vacuum filtration onto 0.3% polyethyleneimine soaked filter mats using Filtermate harvester. Scintilation cocktail is then melted onto microwave-dried filters on a hot plate and the radio activity is counted in Microbia counter.

[4] = target: T1, Alpha-2A adrenergic receptor (Homo sapiens) (UniProt P08913)
T1 sequence (whole entry): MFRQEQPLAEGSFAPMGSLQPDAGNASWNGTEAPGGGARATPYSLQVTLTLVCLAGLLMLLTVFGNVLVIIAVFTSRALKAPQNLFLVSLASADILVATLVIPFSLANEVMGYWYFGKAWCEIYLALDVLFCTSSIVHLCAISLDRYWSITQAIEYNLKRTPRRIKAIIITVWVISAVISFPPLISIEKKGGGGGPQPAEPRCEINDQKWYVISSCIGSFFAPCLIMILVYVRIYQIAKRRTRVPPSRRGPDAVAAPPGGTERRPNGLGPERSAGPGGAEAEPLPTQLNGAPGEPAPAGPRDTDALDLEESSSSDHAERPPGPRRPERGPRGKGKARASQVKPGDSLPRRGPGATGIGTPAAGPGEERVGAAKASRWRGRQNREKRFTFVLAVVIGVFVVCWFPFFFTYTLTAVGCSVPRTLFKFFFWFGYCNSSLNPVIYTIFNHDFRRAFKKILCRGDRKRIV
Description: PDSP Primary Binding target: ADRA2A - Compounds are tested at 10 uM concentration, plate are incubated at room temperature in the dark for 90 minutes. Reaction are stopped by vacuum filtration onto 0.3% polyethyleneimine soaked filter mats using Filtermate harvester. Scintilation cocktail is then melted onto microwave-dried filters on a hot plate and the radio activity is counted in Microbia counter.

[5] = target: T2, Alpha-2C adrenergic receptor (Homo sapiens) (UniProt P18825)
T2 sequence (whole entry): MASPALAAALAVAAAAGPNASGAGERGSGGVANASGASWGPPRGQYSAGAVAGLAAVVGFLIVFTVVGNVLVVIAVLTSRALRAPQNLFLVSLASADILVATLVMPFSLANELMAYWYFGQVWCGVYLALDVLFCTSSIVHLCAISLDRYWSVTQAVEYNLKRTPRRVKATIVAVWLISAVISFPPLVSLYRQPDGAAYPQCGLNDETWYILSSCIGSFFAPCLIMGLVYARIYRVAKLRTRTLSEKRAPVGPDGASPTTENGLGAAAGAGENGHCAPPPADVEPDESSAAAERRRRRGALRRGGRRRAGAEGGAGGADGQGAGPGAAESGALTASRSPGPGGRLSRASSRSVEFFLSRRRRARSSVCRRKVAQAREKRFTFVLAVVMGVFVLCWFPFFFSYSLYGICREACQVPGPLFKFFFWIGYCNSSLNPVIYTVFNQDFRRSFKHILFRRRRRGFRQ
Description: PDSP Primary Binding target: ADRA2C - Compounds are tested at 10 uM concentration, plate are incubated at room temperature in the dark for 90 minutes. Reaction are stopped by vacuum filtration onto 0.3% polyethyleneimine soaked filter mats using Filtermate harvester. Scintilation cocktail is then melted onto microwave-dried filters on a hot plate and the radio activity is counted in Microbia counter.

[6] = target: T3, Muscarinic acetylcholine receptor M1 (Homo sapiens) (UniProt P11229)
T3 sequence (whole entry): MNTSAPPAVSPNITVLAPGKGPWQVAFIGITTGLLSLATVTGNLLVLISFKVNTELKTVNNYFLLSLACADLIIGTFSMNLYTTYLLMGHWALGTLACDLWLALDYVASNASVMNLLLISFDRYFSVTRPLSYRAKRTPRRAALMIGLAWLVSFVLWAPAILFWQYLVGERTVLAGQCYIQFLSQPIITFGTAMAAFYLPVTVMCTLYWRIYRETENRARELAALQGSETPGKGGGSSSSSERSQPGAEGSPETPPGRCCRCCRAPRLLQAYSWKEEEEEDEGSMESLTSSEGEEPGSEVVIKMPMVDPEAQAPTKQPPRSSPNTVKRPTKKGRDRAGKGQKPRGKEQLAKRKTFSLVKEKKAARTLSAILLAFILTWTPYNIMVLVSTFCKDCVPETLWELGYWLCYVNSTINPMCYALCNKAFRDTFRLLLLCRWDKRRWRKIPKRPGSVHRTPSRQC
Description: PDSP Primary Binding target: CHRM1 - Compounds are tested at 10 uM concentration, plate are incubated at room temperature in the dark for 90 minutes. Reaction are stopped by vacuum filtration onto 0.3% polyethyleneimine soaked filter mats using Filtermate harvester. Scintilation cocktail is then melted onto microwave-dried filters on a hot plate and the radio activity is counted in Microbia counter.

[7] = target: 5-hydroxytryptamine receptor 5A (Homo sapiens) (UniProt P47898)
Description: PDSP Primary Binding target: HTR5A - Compounds are tested at 10 uM concentration, plate are incubated at room temperature in the dark for 90 minutes. Reaction are stopped by vacuum filtration onto 0.3% polyethyleneimine soaked filter mats using Filtermate harvester. Scintilation cocktail is then melted onto microwave-dried filters on a hot plate and the radio activity is counted in Microbia counter.

[8] = target: Sodium-dependent serotonin transporter (Homo sapiens) (UniProt P31645)
Description: PDSP Primary Binding target: SLC6A4 - Compounds are tested at 10 uM concentration, plate are incubated at room temperature in the dark for 90 minutes. Reaction are stopped by vacuum filtration onto 0.3% polyethyleneimine soaked filter mats using Filtermate harvester. Scintilation cocktail is then melted onto microwave-dried filters on a hot plate and the radio activity is counted in Microbia counter.

[9] = target: 5-hydroxytryptamine receptor 1B (Homo sapiens) (UniProt P28222)
Description: PDSP Primary Binding target: HTR1B - Compounds are tested at 10 uM concentration, plate are incubated at room temperature in the dark for 90 minutes. Reaction are stopped by vacuum filtration onto 0.3% polyethyleneimine soaked filter mats using Filtermate harvester. Scintilation cocktail is then melted onto microwave-dried filters on a hot plate and the radio activity is counted in Microbia counter.

[10] = target: Muscarinic acetylcholine receptor M3 (Homo sapiens) (UniProt P20309)
Description: PDSP Primary Binding target: CHRM3 - Compounds are tested at 10 uM concentration, plate are incubated at room temperature in the dark for 90 minutes. Reaction are stopped by vacuum filtration onto 0.3% polyethyleneimine soaked filter mats using Filtermate harvester. Scintilation cocktail is then melted onto microwave-dried filters on a hot plate and the radio activity is counted in Microbia counter.

[11] = target: 5-hydroxytryptamine receptor 1E (Homo sapiens) (UniProt P28566)
Description: PDSP Primary Binding target: HTR1E - Compounds are tested at 10 uM concentration, plate are incubated at room temperature in the dark for 90 minutes. Reaction are stopped by vacuum filtration onto 0.3% polyethyleneimine soaked filter mats using Filtermate harvester. Scintilation cocktail is then melted onto microwave-dried filters on a hot plate and the radio activity is counted in Microbia counter.

[12] = target: T4, D(4) dopamine receptor (Homo sapiens) (UniProt P21917)
T4 sequence (whole entry): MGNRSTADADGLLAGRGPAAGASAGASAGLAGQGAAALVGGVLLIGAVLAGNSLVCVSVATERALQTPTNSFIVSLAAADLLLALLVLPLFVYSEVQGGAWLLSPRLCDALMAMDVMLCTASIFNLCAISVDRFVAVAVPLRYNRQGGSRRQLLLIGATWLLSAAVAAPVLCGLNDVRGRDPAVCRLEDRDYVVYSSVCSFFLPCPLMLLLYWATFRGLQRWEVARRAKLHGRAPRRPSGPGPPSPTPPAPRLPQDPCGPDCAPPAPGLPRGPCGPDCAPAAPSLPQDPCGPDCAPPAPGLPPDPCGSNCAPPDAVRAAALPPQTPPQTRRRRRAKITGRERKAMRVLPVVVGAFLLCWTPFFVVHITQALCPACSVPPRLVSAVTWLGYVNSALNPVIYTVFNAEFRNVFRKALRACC
Description: PDSP Primary Binding target: DRD4 - Compounds are tested at 10 uM concentration, plate are incubated at room temperature in the dark for 90 minutes. Reaction are stopped by vacuum filtration onto 0.3% polyethyleneimine soaked filter mats using Filtermate harvester. Scintilation cocktail is then melted onto microwave-dried filters on a hot plate and the radio activity is counted in Microbia counter.

[13] = target: T5, Muscarinic acetylcholine receptor M2 (Homo sapiens) (UniProt P08172)
T5 sequence (whole entry): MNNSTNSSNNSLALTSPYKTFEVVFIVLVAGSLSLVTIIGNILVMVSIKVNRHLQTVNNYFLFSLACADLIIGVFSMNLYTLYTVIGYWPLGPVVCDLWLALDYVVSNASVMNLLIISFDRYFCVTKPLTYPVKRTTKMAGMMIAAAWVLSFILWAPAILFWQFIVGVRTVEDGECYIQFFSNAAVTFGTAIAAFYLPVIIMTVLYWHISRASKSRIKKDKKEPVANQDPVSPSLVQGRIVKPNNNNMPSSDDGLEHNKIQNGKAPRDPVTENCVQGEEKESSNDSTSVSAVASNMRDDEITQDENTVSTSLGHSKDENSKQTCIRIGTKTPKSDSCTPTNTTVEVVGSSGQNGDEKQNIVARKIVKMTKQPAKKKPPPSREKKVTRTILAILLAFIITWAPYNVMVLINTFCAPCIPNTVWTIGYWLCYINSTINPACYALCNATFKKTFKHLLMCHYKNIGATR
Description: PDSP Primary Binding target: CHRM2 - Compounds are tested at 10 uM concentration, plate are incubated at room temperature in the dark for 90 minutes. Reaction are stopped by vacuum filtration onto 0.3% polyethyleneimine soaked filter mats using Filtermate harvester. Scintilation cocktail is then melted onto microwave-dried filters on a hot plate and the radio activity is counted in Microbia counter.

Chain of Beta-2 adrenergic receptor (Homo sapiens) (P07550 whole entry, looked up): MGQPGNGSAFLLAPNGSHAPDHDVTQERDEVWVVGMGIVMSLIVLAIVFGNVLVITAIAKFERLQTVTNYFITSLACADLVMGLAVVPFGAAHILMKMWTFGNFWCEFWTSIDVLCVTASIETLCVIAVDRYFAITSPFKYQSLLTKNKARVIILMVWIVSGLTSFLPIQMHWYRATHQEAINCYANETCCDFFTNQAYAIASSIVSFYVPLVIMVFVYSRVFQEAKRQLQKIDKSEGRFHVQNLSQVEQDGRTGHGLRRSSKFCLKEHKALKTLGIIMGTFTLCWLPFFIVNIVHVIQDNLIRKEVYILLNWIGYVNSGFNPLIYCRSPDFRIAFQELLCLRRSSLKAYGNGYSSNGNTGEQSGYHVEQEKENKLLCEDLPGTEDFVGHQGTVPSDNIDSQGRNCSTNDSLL
Chain of 5-hydroxytryptamine receptor 1E (Homo sapiens) (P28566 whole entry): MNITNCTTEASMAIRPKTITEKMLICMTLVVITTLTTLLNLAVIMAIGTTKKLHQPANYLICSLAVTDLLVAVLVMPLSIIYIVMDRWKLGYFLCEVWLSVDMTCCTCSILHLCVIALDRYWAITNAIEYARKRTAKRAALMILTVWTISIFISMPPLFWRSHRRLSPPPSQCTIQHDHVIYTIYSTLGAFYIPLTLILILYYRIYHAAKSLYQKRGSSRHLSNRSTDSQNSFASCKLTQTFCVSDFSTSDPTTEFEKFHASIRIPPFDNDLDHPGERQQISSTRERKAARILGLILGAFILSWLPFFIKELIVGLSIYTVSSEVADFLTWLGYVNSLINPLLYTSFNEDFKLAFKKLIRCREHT
Chain of 5-hydroxytryptamine receptor 5A (Homo sapiens) (P47898 whole entry): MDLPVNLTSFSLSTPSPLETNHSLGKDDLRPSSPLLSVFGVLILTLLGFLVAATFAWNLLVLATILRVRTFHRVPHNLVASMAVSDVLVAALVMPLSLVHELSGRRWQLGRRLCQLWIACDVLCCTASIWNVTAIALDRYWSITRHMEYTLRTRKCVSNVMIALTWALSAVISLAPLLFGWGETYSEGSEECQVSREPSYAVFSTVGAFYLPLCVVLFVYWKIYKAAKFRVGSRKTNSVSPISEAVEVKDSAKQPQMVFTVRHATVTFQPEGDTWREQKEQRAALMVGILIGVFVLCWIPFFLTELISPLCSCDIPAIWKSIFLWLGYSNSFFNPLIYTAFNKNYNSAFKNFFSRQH
Chain of 5-hydroxytryptamine receptor 1B (Homo sapiens) (P28222 whole entry): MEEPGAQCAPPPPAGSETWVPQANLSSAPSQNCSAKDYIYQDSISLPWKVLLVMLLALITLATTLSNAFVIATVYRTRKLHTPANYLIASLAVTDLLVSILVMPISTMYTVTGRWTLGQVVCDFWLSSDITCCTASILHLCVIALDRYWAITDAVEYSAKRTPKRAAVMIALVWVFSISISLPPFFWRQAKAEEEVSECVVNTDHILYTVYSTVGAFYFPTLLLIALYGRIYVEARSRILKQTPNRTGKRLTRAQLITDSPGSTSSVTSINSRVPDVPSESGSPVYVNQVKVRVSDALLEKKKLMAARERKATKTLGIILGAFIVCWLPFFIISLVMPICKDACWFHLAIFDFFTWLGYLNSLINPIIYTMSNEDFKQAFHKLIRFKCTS
Chain of Sigma intracellular receptor 2 (Homo sapiens) (Q5BJF2 whole entry): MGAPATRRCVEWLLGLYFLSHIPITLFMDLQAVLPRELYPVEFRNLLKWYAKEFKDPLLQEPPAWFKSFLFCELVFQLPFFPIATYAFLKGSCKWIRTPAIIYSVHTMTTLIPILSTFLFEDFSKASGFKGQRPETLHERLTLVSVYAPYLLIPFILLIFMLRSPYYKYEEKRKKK
Chain of 5-hydroxytryptamine receptor 2B (Homo sapiens) (P41595 whole entry): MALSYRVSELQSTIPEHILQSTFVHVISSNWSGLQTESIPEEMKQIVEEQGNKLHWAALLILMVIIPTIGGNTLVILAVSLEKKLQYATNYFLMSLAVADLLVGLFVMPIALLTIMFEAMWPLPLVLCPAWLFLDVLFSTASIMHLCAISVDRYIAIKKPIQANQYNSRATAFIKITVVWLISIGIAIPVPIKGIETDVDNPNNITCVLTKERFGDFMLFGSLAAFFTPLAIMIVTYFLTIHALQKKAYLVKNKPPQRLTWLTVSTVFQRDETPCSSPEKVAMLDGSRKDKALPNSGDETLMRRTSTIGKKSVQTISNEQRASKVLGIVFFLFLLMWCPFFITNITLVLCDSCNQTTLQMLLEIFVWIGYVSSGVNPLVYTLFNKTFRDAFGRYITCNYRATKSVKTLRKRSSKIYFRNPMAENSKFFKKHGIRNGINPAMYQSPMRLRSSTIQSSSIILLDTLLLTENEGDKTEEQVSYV
Chain of Muscarinic acetylcholine receptor M3 (Homo sapiens) (P20309 whole entry, looked up): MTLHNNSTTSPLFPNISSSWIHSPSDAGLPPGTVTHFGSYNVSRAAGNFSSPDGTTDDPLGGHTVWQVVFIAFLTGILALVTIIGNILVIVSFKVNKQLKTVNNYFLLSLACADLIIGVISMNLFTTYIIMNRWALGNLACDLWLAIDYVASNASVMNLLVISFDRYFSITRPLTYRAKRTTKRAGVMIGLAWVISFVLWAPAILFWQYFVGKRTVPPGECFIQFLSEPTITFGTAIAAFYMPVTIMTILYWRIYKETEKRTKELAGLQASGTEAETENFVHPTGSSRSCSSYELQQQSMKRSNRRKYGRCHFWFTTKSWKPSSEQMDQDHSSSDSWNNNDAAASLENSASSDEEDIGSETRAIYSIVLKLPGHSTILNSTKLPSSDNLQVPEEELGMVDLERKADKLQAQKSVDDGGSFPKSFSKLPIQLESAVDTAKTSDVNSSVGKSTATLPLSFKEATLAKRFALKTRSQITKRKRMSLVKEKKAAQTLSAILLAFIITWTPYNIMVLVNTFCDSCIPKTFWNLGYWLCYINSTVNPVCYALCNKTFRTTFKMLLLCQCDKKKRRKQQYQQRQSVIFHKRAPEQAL
Chain of Sodium-dependent serotonin transporter (Homo sapiens) (P31645 whole entry, looked up): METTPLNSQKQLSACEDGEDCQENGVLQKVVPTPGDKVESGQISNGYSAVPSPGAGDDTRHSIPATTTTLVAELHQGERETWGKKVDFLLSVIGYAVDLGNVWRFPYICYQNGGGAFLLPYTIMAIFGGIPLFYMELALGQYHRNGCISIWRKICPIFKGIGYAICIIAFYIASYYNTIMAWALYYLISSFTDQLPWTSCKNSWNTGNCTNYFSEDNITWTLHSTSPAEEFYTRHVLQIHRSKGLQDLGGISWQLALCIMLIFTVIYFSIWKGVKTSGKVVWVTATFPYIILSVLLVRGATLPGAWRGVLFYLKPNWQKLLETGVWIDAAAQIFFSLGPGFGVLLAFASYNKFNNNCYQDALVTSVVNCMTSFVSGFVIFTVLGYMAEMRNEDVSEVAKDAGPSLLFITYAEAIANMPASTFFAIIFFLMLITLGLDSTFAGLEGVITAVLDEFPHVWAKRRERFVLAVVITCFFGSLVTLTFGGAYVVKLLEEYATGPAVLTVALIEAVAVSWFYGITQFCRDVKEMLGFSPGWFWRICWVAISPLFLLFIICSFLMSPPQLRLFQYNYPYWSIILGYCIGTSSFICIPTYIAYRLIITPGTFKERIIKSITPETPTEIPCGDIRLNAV

| SMILES | inhibition [1] | inhibition [2] | inhibition [3] | inhibition [4] | inhibition [5] | inhibition [6] | inhibition [7] | inhibition [8] | inhibition [9] | inhibition [10] | inhibition [11] | inhibition [12] | inhibition [13] |
| --- | --- | --- | --- | --- | --- | --- | --- | --- | --- | --- | --- | --- | --- |
| Cc1nn(C)c(C)c1-c1cccc2c1CC[C@H](N(C)C)C2 | 20.2% | 79.1% | 84.9% | 89.8% | 45.4% | 29.3% | 87.1% | 3.62% | 91.5% | 44.1% | 47.5% | 24.5% |  |
| CN(C)S(=O)(=O)c1ccc(NC(=S)N2CCC(C(O)(c3ccccc3)c3ccccc3)CC2)cc1 | 71.8% | 95.2% | 23.4% | -9.2% | 21.8% | 8.52% |  | 16% |  | -7.46% | 7.01% | 8.69% |  |
| N#Cc1ccc(NC(=O)Nc2ccccc2Br)c2nn[nH]c12 | -2.94% |  | 33.9% |  | 4.08% |  |  | 26.5% | 1.05% |  | 4.87% | 13.3% | 29.7% |
| N#Cc1c[nH]c2c(C(=O)N3CCN(CCc4ccc(F)cc4)CC3)cccc12 | 60.9% | 68.2% | 57.1% | -0.21% | 38.2% | -2.04% | 12.6% | 60.4% | -5.18% |  | 27.3% | 81.9% |  |
| CCc1nn(CCCN2CCN(c3cccc(Cl)c3)CC2)c(=O)n1CCOc1ccccc1 | -0.82% | 91.7% | 79.6% | 91.1% | 95.3% |  | 73.3% | 84.9% | 88% | 0.27% | -4.17% | 89.3% |  |
| CCCNS(=O)(=O)Nc1ncnc(OCCOc2ncc(Br)cn2)c1-c1ccc(Br)cc1 |  | 30% |  |  | -8.41% |  |  | 67.2% | -0.31% | 20.8% | 42.3% |  | -6.56% |
| CS(=O)(=O)NC[C@H]1CC[C@H](Nc2nc3c(s2)CCSc2ccccc2-3)CC1 | 94.4% | 81.4% | 83% | 0.86% | 37.1% | -1.96% | 64.7% | 13.6% |  | -7.8% | 6.22% | 44% |  |
| O=c1ccn([C@@H]2O[C@H](COP(=O)(O)OP(=O)(O)OP(=O)(O)O)[C@@H](O)[C@H]2O)c(=O)[nH]1 |  | 34% | -4.24% | 11.6% | 6.85% |  | 16.9% | 13.8% | 7.75% | 5.24% | -2.1% | 53.3% |  |
| Cc1ccc2c(c1)c1c(n2CCc2ccc(C)nc2)CCN(C)C1 | -9.1% | 32.2% | 76.9% | 69.7% | 73.6% |  | 94.8% | -8.68% | 74.3% | 18% | 56.9% | 52.7% |  |
| Cc1nc(-c2ccc(C(F)(F)F)cc2)sc1COc1ccc([C@H](CC(=O)O)c2ccon2)cc1 | 7.87% | 26.5% | 0.53% |  | 2.28% |  | 26.8% | 21.4% |  | 2.18% | 39.7% |  | 25.2% |
| CC(C)[C@H](CO)Nc1nc(Nc2cccc(Cl)c2)c2ncn(C(C)C)c2n1 | -7.15% | 63.1% | 96.2% | 6.44% | 28.4% |  | 60.9% | 3.66% | 38.1% | -0.08% |  | 62.7% |  |
| CCc1cc2c(cc1CC)CC(NC[C@H](O)c1ccc(O)c3[nH]c(=O)ccc13)C2 | 94.3% | 96.5% | 92.6% | 42.1% | 30% | -6.02% | 6.33% | 52.9% | 34.4% | 18.1% | -6.64% | 24.2% |  |
| Cc1cc(C)cc(-c2cnc3cc(Cl)c(-c4cccc(O)c4)cc3c2OCCCN)c1 | 92.8% | 94.9% | 88.6% | 64.9% | 68% | 24.3% | 96.4% | 48.9% | 88.2% | 59.2% | 54.4% | 32.1% |  |
| N[C@H](C(=O)O)c1ccc(C(=O)O)c(C(=O)O)c1 | 6.53% |  |  |  | -9.35% |  | -7.78% | 69.3% | -2.1% | 4.31% | -8.66% | -8.24% | 45% |
| Cc1c(F)cccc1NC(=O)Nc1ccc(Cl)c(S(=O)(=O)[C@H]2CCCNC2)c1O | 5.61% |  | 44.3% |  | -6.11% |  | 16.5% | -2.95% | 8.6% | 22.8% | -6.67% | 6.5% |  |
| CCCCCCCCCCCCC/C=C/[C@@H](O)[C@@H](N)COP(=O)(O)O |  | 79.4% | 11.5% | 4.33% | -4.87% |  | -4.35% | -0.47% | 8.79% | 9.29% | 14.4% |  | -7.68% |
